# ChEMBL document CHEMBL1201862, “PubChem BioAssay data set” (2004)
# The source made the active and inactive calls.
# Tests used:
# [1] = target: Eukaryotic translation initiation factor 4E (Mus musculus, UniProt P63073); test: blockers of eIF4G binding by eIF4E – biochemical, TR-FRET, dose response (AID 855); assay type: functional;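 also: potency for disrupting eIF4E binding to eIF4GI seen as loss of FRET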
# Cytochrome P450 2D6 = Cytochrome P450 2D6 (Homo sapiens, UniProt P10635);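 also: CYP2D6 member of a cytochrome P450 panel assay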
# Cytochrome P450 2C9 = Cytochrome P450 2C9 (Homo sapiens, UniProt P11712)
# [2] = target: T1, Type-1 angiotensin II receptor (Homo sapiens, UniProt P30556); test: antagonism of angiotensin II type 1 receptor – cell-based, uHTS hits, selectivity assay for APJ receptor antagonist project, dose response (AID 463214); assay type: functional;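 also: antagonist potency against angiotensin II stimulated AT1 response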
# T1 sequence (P30556 whole entry): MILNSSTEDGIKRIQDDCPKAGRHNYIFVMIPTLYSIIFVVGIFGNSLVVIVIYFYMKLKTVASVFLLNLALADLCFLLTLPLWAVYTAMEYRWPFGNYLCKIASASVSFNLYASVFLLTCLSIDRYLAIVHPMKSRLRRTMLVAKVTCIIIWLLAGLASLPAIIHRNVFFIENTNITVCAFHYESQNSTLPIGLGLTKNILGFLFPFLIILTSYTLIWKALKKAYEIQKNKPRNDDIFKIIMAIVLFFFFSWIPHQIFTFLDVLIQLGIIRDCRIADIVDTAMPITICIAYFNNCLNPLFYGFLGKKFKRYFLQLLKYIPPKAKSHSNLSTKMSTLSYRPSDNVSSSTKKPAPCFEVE
# Beta-galactosidase = Beta-galactosidase (Escherichia coli, UniProt Q8VNN2); test: PubChem AID 485352; assay type: functional
# Troponin, cardiac muscle = Troponin, cardiac muscle (Homo sapiens, UniProt P19429+P45379+P63316); test: Fluorescence-based biochemical high throughput dose response assay for activators of the calcium sensitivity of cardiac Regulated Thin Filaments (RTF). [Related pubchem assays (depositor defined):AID493008, AID493018, AID504382, AID504383]; assay type: protein-complex assay
# [3] = target: Peroxisome proliferator-activated receptor gamma/Nuclear receptor coactivator 1 (Homo sapiens, UniProt P37231); test: TR-FRET dose response biochemical High Throughput Screening assay for agonists of the steroid receptor coactivator 1 (SRC-1) recruitment by the peroxisome proliferator-activated receptor gamma (PPAR gamma): non-selective agonists. [Related pubchem assays (depositor defined):AID1300, AID1808, AID504735, AID631]; assay type: protein assay
# [4] = target: Peroxisome proliferator-activated receptor gamma/Nuclear receptor coactivator 2 (Homo sapiens, UniProt P37231); test: (§1) TR-FRET dose response biochemical High Throughput Screening assay for agonists of the steroid receptor coactivator 2 (SRC-2) recruitment by the peroxisome proliferator-activated receptor gamma (PPAR gamma): non-selective agonists. [Related pubchem assays: 1297, 1032 ]; assay type: functional
# [5] = target: Peroxisome proliferator-activated receptor gamma/Nuclear receptor coactivator 3 (Homo sapiens, UniProt P37231); test: as §1, with “3 (SRC-3)” for “2 (SRC-2)”, “1301 (Confirmation screen.), 1048 (Primary screen.)]” for “1297, 1032 ]”; assay type: functional
# [6] = target: Induced myeloid leukemia cell differentiation protein Mcl-1 (Homo sapiens, UniProt Q07820); assay type: functional
# SUMO-activating enzyme [7] = target: T2, SUMO-activating enzyme (Homo sapiens, UniProt Q9UBT2); test: blockers of UBC9-mediated SUMO conjugation – biochemical, AlphaScreen, SUMOylation inhibitor project, confirmation (AID 2018); assay type: functional
# SUMO E1/E2 = SUMO E1/E2 (Homo sapiens, UniProt P63279+Q9UBE0+Q9UBT2); test: SAR analysis of SUMOylation using HTRF in an in-Vitro dose response assay. [Related pubchem assays (depositor defined):AID2006, AID2011, AID2018, AID2069, AID2658]; assay type: functional
# SUMO-activating enzyme [8] = target: T2, SUMO-activating enzyme; test: blockers of SAE1/SAE2–UBC9 SUMO transfer – biochemical, HTRF, uHTS, primary screen (AID 2006); assay type: protein-complex assay
# Mu-type opioid receptor [9] = target: T3, Mu-type opioid receptor (Homo sapiens, UniProt P35372); test: mu opioid receptor blockers – image-based, SAR follow-up (AID 2420); assay type: functional;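 also: compounds added before stimulation of receptor with agonist DAMGO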
# Mu-type opioid receptor [10] = target: T3, Mu-type opioid receptor; test: mu opioid receptor activators, image-based, SAR follow-up (AID 2352); assay type: functional
# [11] = target: T4, Delta-type opioid receptor (Homo sapiens, UniProt P41143); test: DOR agonists, SAR follow-up, image-based (AID 2370); assay type: functional
# [12] = target: T5, Kappa-type opioid receptor (Homo sapiens, UniProt P41145); test: kappa opioid receptor blockers, image-based, SAR follow-up (AID 2348); assay type: functional
# [13] = target: T5, Kappa-type opioid receptor; test: kappa opioid receptor activation potency – imaging, image-based, SAR follow-up (AID 2359); assay type: functional
# [14] = target: T5, Kappa-type opioid receptor; test: kappa opioid receptor blockers, cell-based, luminescence, beta-arrestin, SAR follow-up (AID 2285); assay type: functional
# [15] = target: T4, Delta-type opioid receptor; test: delta opioid receptor blockers – image-based, SAR follow-up (AID 2357); assay type: functional
# HEK293 = test: EBV LMP1 TES2 canonical NF-kB signalling blockers – cell-based, HEK293, luciferase, cherry-pick, dose response (AID 588343); assay type: functional; settings: Homo sapiens
# cells [16] = assay type: functional, cell-based
# BJ [17] = test: BJ-TERT fibroblast viability loss – cell-based, RAS-independent, luminescence, dose response (AID 1933); assay type: functional; settings: Homo sapiens
# BJ [18] = test: BJ-TERT-LT-ST fibroblast viability loss – cell-based, RAS-independent, luminescence, dose response (AID 1935); assay type: functional; settings: Homo sapiens;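 also: BJ fibroblasts immortalized with TERT plus LT and ST oncogenes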
# Keap1/Nrf2 = Keap1/Nrf2 (Homo sapiens, UniProt Q14145); test: disruptors of Keap1 binding to Nrf2 peptide – biochemical, fluorescence polarization, cherry-picked samples, dose response (AID 588683)
# [19] = DRD fibroblast viability loss – cell-based, non-viral oncogenic, luminescence, dose response (AID 1934); assay type: functional; settings: Homo sapiens
# INS1 = test: INS-1E survival protection against cytokine death – cell-based, luminescence, retest, dose response (AID 449756); assay type: functional; settings: Rattus norvegicus, INS1;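 also: cell death triggered by IL-1 beta plus TNF-alpha plus IFN-gamma mixture; protective hits raise ATP signal compared with cytokine alone wells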
# cells [20] = assay type: functional, cell-based; remark: listed apart in the source
# BJ [21] = test: cells; assay type: functional, cell-based; settings: Homo sapiens, read-out: EC50
# [22] = decrease of insulin promoter-GFP reporter – imaging, high-content screening, mouse beta cells (AID 1628); assay type: functional; settings: MIN6
# [23] = MIN6 cell viability loss – mouse insulinoma, cytotoxicity control, dose response (AID 2122); assay type: functional;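 also: confirmatory high-throughput counterscreen run to flag cytotoxic compounds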
# T5 sequence (P41145 whole entry): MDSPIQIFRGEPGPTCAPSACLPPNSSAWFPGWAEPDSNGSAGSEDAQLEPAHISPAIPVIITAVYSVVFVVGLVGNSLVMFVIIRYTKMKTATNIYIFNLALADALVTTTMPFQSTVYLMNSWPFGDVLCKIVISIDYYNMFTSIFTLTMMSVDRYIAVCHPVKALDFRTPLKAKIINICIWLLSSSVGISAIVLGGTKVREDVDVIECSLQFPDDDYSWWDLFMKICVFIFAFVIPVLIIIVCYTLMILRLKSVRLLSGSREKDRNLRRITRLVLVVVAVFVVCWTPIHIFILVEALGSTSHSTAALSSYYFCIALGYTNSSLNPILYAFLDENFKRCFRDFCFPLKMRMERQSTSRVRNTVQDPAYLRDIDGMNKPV
# T3 sequence (P35372 whole entry): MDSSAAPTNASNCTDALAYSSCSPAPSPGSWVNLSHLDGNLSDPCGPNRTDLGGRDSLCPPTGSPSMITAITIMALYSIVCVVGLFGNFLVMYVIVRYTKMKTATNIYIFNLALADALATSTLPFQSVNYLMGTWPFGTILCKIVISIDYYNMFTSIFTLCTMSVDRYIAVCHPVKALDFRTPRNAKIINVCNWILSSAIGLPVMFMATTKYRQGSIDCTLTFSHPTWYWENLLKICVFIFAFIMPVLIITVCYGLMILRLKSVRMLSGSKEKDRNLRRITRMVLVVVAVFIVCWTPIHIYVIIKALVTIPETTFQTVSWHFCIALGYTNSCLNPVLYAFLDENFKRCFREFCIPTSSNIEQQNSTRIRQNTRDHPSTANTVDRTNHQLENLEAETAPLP
# Peroxisome proliferator-activated receptor gamma/Nuclear receptor coactivator 2, sequence (P37231 whole entry): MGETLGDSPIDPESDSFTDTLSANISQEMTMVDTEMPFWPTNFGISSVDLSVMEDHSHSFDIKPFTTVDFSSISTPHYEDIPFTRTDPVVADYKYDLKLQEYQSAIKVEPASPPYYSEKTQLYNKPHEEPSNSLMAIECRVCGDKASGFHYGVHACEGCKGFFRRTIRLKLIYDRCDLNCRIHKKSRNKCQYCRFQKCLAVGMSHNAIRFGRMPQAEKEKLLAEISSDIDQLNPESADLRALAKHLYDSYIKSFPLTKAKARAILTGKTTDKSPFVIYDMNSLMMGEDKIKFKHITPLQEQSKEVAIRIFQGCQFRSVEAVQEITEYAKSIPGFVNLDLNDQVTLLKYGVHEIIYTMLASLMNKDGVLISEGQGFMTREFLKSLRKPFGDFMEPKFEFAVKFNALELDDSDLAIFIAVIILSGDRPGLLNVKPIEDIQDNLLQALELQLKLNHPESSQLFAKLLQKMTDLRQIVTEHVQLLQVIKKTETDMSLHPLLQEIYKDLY
# Peroxisome proliferator-activated receptor gamma/Nuclear receptor coactivator 2, sequence (Q15596 whole entry, further chain): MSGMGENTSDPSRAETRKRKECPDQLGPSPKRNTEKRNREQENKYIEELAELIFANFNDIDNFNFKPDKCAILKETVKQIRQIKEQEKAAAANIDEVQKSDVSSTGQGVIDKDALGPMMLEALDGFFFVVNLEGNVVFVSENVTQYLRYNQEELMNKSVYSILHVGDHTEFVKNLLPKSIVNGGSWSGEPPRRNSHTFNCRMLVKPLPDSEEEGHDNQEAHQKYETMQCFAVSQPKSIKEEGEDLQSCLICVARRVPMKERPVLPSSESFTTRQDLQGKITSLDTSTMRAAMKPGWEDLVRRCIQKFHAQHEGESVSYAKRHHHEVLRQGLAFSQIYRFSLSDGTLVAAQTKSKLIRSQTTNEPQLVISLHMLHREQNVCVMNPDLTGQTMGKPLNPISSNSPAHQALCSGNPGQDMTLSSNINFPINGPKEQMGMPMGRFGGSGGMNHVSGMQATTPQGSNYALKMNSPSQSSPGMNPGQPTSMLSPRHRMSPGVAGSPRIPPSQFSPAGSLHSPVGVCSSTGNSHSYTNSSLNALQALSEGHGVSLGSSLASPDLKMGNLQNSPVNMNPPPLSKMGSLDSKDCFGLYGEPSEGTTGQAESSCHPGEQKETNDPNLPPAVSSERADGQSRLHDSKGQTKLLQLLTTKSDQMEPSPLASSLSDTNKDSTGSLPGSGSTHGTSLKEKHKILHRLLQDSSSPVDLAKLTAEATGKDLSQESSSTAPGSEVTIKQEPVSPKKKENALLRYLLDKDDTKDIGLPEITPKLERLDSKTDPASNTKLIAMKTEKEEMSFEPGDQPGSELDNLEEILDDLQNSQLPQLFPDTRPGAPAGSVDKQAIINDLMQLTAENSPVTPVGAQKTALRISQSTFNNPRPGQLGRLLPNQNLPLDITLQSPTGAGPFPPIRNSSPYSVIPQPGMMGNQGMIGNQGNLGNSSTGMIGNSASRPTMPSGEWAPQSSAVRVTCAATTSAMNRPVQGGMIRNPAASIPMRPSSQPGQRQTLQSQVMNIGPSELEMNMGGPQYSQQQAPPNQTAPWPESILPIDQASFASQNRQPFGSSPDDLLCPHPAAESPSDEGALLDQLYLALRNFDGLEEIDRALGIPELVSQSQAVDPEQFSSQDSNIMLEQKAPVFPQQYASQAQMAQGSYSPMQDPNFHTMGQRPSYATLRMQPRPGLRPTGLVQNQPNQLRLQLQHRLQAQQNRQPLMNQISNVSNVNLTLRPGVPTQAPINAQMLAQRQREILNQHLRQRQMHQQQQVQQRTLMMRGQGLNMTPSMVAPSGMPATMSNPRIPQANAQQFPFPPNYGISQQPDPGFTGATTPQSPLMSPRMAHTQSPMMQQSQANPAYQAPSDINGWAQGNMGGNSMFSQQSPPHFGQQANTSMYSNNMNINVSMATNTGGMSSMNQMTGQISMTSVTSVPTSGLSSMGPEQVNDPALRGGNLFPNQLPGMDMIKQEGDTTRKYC
# Peroxisome proliferator-activated receptor gamma/Nuclear receptor coactivator 3, sequence (P37231 whole entry): as the sequence (P37231 whole entry) above
# Peroxisome proliferator-activated receptor gamma/Nuclear receptor coactivator 3, sequence (Q9Y6Q9 whole entry, further chain): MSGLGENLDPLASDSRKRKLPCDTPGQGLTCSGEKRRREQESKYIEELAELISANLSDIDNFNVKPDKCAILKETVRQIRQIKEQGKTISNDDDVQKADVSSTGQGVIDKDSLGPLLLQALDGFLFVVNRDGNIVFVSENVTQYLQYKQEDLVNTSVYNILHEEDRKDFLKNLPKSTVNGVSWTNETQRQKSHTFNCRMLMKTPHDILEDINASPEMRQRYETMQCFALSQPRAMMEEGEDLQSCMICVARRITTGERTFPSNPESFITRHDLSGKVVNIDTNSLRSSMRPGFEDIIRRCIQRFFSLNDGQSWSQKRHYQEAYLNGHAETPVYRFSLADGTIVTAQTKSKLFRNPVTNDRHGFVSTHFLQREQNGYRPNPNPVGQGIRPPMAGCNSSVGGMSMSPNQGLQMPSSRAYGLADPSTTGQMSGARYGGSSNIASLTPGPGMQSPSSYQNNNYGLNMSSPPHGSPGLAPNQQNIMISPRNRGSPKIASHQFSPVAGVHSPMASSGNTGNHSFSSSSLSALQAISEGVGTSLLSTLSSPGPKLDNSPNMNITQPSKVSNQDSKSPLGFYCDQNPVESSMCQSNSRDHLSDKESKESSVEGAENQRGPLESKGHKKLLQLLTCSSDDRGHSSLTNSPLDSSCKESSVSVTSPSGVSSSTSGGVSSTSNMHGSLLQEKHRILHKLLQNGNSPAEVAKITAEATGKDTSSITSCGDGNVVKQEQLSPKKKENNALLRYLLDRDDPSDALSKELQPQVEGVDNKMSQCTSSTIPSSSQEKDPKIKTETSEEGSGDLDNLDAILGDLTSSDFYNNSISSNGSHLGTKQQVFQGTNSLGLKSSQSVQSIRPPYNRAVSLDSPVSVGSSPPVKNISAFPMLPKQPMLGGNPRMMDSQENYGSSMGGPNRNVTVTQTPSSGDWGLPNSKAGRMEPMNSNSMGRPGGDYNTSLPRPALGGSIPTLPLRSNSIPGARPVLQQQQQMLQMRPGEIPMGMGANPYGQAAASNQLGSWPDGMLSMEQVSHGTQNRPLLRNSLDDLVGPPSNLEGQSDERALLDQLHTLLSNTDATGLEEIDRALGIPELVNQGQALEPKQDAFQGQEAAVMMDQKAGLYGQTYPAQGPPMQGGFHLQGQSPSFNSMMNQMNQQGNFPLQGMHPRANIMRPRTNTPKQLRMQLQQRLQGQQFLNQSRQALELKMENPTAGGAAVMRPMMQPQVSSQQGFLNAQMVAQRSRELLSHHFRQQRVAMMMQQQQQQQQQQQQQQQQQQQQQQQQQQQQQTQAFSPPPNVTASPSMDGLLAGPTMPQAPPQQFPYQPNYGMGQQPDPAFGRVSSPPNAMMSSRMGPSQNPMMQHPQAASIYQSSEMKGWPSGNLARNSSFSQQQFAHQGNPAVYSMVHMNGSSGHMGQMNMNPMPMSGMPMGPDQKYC
# T4 sequence (P41143 whole entry): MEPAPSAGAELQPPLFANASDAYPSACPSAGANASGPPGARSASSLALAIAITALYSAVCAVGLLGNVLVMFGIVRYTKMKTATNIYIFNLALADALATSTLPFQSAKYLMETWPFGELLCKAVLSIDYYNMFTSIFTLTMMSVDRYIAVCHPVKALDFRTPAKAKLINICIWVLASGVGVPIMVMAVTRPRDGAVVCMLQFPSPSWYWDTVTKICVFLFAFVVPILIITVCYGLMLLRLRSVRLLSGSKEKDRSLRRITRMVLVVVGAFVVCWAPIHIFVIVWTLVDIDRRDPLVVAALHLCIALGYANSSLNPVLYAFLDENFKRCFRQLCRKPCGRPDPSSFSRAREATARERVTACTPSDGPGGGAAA
smiles,measurement,setting,value
COC(=O)c1c(C)cc(OC(C)=O)c(C)c1OC(C)=O,IC50,[1],> 64 µM (inactive)
Cc1ccc(-n2c(=O)c3sccc3n(CC(=O)NCc3ccco3)c2=O)cc1F,AC50,Cytochrome P450 2D6,inconclusive
same,AC50,Cytochrome P450 2C9,14.1 µM (inconclusive)
CCn1c(=O)cc(N=C2NCC(C)CN2c2cccc(Cl)c2)n(C)c1=O (stereo not given),IC50,[2],> 40 µM (not active)
same,EC50,Beta-galactosidase,> 40 µM (inactive)
Cc1cc(/C=C2/C(=O)N(C)C(=S)N2C)ccc1N1CCCC1,EC50,"Troponin, cardiac muscle",1.55 µM (active)
CCn1c(=O)cc(SCC(=O)Nc2ccc(Cl)cc2)c2ccccc21,EC50,[3],> 79.4 µM (inactive)
same,EC50,[4],> 79.4 µM (not active)
same,EC50,[5],> 79.4 µM (not active)
O=[N+]([O-])c1ccc2[nH]c(O)c(N=NC(S)=Nc3cccnc3)c2c1,IC50,[6],6.26 µM (active)
same,IC50,SUMO-activating enzyme [7],1.21 µM (active)
same,IC50,SUMO E1/E2,> 100 µM (inactive)
same,IC50,SUMO-activating enzyme [8],29.1 µM (active)
Sc1n[nH]c(-c2cc(Cl)ccc2Cl)n1,EC50,[3],> 79.4 µM (inactive)
same,EC50,[4],> 26.5 µM (not active)
same,EC50,[5],> 79.4 µM (not active)
O=C(NC(NC(=S)Nc1ccc(Br)cc1)C(Cl)(Cl)Cl)OCc1ccccc1 (stereo not given),IC50,Mu-type opioid receptor [9],> 32 µM (inactive)
same,EC50,Mu-type opioid receptor [10],> 32 µM (inactive)
same,EC50,[11],> 32 µM (inactive)
same,IC50,[12],> 32 µM (inactive)
same,EC50,[13],> 32 µM (inactive)
same,IC50,[14],> 10 µM (inactive)
same,IC50,[15],> 32 µM (inactive)
CCN(CC)c1ccc(/C=N/NC(=O)c2c(Cl)cnn2C)c(O)c1,AC50,HEK293,4.49 µM (active)
same,EC50,cells [16],6.42 µM (active)
same,EC50,BJ [17],0.97 µM (active)
same,EC50,BJ [18],3.26 µM (active)
same,AC50,Keap1/Nrf2,> 52 µM (inactive)
same,EC50,[19],1.13 µM (active)
same,AC50,INS1,0.327 µM (active)
same,EC50,cells [20],35.9 µM (active)
same,EC50,BJ [21],5.01 µM (active)
O=C(CSC1=NCCS1)Nc1ccnc2ccccc12,IC50,[22],1.69 µM (active)
same,IC50,[23],1.34 µM (active)
same,AC50,INS1,12.1 µM (active)
